Assay results reported in publication PMC9611727, “Optimization of a Novel Mandelamide-Derived Pyrrolopyrimidine Series of PERK Inhibitors” (Pharmaceutics, 2022).
Numbering of substitutions follows the chain as printed.

Key:
Assay in all cases: scanMAX kinase panel
Type in all cases: binding
Details in all cases: read-out: % Control; for remaining binding at 1 µM: 1000 nM
AURKB = target: T1, AURKB (Homo sapiens, UniProt Q96GD4)
T1 construct: purchased DiscoverX scanMAX
Source text: (§1) Supplemental Table S2. scanMAXSM Kinome Assay Results. Complete tabulated data of all 468 kinases from the panel, including
(§2) 403 wild-type and 65 mutant isoforms. […] Cmpd 11 and Cmpd 24

EIF2AK1 = target: T2, EIF2AK1 (Homo sapiens, UniProt Q9BQI3)
T2 construct: purchased DiscoverX scanMAX
Source text: as §1, §2

FLT3(D835H) = target: T3, FLT3(D835H) (Homo sapiens, UniProt P36888, D835H)
T3 construct: purchased DiscoverX scanMAX
T3 sequence (P36888 27-993 D835H): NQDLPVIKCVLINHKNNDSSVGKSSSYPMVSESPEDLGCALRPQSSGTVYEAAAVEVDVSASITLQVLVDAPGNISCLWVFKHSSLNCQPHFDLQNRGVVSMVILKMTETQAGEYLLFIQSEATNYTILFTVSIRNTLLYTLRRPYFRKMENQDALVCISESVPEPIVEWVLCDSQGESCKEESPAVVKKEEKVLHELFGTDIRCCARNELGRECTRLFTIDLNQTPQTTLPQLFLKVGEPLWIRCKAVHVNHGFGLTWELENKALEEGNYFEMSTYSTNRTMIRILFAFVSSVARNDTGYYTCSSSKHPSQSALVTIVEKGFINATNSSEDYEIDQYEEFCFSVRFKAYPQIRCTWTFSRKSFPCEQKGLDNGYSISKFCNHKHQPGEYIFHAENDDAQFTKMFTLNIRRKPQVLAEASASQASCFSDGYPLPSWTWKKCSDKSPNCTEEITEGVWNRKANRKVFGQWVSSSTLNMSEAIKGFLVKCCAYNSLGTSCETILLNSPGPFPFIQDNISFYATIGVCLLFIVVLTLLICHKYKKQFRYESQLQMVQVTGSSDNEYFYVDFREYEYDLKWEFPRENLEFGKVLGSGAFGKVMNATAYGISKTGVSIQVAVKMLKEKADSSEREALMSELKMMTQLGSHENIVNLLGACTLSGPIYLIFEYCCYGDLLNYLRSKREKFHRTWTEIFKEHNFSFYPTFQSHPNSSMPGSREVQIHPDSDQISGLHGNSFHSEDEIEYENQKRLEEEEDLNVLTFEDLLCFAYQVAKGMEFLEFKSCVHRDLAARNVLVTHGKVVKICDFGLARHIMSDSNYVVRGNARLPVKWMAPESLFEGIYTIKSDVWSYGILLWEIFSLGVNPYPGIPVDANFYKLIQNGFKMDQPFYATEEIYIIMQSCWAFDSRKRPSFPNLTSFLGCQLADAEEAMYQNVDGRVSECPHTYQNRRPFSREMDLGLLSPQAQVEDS
Source text: as §1, §2

FLT3(R834Q) = target: T4, FLT3(R834Q) (Homo sapiens, UniProt P36888, R834Q)
T4 construct: purchased DiscoverX scanMAX
T4 sequence (P36888 27-993 R834Q): T3 sequence (P36888 27-993 D835H) with R808Q, H809D
Source text: as §1, §2

FLT3-autoinhibited = target: T5, FLT3-autoinhibited (Homo sapiens, UniProt P36888)
T5 construct: purchased DiscoverX scanMAX
T5 sequence (P36888 564-993 limits assumed): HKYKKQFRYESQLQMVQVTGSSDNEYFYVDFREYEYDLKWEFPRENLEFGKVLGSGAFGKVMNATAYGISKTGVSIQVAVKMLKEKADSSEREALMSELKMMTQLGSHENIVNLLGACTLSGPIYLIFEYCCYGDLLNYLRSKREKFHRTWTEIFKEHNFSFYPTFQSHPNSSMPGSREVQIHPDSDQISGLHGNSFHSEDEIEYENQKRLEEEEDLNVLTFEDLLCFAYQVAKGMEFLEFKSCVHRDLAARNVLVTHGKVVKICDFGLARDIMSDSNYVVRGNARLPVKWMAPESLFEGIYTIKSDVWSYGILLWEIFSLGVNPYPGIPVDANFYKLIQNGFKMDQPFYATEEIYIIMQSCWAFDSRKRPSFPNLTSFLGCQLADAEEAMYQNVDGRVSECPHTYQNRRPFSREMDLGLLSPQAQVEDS
Source text: as §1, §2

KIT(V559D) = target: T6, KIT(V559D) (Homo sapiens, UniProt P10721, V559D)
T6 construct: purchased DiscoverX scanMAX
Source text: as §1, §2

PDGFRB = target: T7, PDGFRB (Homo sapiens, UniProt P09619)
T7 construct: purchased DiscoverX scanMAX
Source text: as §1, §2

PIK3C2B = target: T8, PIK3C2B (Homo sapiens, UniProt O00750)
T8 construct: purchased DiscoverX scanMAX
Source text: as §1, §2

PIP5K1C = target: T9, PIP5K1C (Homo sapiens, UniProt O60331)
T9 construct: purchased DiscoverX scanMAX
Source text: as §1, §2

TYK2(JH2domain-pseudok.) = target: T10, TYK2(JH2domain-pseudok.) (Homo sapiens, UniProt P29597)
T10 construct: TYK2(JH2domain-pseudok.); purchased DiscoverX (scanMAX panel)
Source text: as §1, §2

T10 sequence (P29597 589-875 limits assumed): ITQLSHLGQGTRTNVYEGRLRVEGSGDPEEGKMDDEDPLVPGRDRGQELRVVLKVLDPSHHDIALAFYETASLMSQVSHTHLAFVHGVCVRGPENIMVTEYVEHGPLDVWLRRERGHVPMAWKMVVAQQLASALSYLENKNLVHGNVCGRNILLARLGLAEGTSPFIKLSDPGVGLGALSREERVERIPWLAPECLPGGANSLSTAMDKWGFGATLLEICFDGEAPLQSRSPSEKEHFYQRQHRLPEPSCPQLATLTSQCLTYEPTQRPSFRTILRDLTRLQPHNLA
T6 sequence (P10721 26-976 V559D): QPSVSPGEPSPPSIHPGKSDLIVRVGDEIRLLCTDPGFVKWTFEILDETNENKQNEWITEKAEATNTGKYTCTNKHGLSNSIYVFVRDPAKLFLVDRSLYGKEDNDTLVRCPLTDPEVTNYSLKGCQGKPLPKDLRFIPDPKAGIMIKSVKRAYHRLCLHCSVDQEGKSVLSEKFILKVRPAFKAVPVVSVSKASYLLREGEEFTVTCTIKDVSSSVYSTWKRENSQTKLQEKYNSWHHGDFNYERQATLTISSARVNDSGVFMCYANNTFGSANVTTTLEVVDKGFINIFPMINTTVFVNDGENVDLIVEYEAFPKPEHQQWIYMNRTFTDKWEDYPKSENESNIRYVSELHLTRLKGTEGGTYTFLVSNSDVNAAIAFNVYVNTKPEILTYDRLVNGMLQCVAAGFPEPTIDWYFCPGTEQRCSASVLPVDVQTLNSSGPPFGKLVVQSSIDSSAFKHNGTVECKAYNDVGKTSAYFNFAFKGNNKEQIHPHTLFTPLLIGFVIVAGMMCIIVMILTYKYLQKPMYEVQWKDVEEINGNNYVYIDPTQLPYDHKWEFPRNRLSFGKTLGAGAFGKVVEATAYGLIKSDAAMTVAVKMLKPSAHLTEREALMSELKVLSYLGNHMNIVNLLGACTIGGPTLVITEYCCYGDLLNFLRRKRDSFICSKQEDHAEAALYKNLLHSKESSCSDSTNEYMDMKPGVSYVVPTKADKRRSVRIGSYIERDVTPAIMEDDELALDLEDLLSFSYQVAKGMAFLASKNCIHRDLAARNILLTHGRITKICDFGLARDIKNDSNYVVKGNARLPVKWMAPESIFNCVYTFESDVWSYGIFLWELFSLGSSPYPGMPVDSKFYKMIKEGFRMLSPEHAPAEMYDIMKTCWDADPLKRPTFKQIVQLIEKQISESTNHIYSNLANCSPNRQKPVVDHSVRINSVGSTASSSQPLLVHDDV
T8 sequence (O00750 whole entry): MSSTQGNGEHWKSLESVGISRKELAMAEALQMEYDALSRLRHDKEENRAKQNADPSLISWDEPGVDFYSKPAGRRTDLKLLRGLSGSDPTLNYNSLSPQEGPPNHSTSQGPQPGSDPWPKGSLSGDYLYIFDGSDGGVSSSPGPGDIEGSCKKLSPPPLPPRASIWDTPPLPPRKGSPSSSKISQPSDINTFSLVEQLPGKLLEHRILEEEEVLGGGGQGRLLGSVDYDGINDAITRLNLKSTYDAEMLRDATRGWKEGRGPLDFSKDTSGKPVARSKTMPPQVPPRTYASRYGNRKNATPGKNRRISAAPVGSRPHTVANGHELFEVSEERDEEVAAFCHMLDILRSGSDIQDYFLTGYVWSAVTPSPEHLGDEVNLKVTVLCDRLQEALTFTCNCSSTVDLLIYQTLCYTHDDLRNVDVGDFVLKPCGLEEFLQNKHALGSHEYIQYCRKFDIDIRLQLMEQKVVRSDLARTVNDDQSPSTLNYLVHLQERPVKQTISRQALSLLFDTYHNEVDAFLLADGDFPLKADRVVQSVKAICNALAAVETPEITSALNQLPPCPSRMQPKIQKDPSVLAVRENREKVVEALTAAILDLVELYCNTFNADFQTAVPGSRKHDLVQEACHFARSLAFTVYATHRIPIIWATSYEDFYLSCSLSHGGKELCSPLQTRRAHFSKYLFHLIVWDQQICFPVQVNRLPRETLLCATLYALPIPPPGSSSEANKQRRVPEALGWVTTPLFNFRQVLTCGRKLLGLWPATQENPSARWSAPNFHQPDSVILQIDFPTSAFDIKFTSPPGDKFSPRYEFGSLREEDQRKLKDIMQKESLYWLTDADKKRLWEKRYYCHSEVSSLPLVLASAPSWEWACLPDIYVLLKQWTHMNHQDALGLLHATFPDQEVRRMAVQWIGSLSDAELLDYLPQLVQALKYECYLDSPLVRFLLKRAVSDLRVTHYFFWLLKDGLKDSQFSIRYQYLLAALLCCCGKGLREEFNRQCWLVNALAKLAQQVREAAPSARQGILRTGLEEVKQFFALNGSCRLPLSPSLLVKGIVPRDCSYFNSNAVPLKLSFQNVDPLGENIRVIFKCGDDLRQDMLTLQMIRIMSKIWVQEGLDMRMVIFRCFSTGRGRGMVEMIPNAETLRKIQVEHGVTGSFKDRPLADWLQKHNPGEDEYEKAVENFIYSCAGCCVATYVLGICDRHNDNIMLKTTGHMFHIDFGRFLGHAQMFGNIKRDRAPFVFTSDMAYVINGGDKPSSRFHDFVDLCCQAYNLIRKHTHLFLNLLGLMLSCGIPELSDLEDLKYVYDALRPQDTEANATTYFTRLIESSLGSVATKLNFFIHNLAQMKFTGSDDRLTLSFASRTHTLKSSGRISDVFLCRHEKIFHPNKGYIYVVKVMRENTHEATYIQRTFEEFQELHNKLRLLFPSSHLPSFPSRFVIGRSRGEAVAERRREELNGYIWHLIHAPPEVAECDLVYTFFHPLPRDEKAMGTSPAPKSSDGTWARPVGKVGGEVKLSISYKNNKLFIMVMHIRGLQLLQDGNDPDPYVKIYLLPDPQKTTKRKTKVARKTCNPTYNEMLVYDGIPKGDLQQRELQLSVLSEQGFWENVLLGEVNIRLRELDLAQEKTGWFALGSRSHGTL
T1 sequence (Q96GD4 whole entry): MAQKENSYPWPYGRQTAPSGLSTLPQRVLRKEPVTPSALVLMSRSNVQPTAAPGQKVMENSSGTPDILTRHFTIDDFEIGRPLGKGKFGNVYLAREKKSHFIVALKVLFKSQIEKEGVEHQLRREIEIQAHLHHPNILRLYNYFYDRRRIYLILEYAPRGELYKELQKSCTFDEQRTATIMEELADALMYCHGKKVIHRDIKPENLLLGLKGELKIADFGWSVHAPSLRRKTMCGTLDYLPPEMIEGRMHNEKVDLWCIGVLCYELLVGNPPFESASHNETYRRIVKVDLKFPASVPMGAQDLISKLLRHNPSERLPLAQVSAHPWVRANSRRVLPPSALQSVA
T7 sequence (P09619 33-1106): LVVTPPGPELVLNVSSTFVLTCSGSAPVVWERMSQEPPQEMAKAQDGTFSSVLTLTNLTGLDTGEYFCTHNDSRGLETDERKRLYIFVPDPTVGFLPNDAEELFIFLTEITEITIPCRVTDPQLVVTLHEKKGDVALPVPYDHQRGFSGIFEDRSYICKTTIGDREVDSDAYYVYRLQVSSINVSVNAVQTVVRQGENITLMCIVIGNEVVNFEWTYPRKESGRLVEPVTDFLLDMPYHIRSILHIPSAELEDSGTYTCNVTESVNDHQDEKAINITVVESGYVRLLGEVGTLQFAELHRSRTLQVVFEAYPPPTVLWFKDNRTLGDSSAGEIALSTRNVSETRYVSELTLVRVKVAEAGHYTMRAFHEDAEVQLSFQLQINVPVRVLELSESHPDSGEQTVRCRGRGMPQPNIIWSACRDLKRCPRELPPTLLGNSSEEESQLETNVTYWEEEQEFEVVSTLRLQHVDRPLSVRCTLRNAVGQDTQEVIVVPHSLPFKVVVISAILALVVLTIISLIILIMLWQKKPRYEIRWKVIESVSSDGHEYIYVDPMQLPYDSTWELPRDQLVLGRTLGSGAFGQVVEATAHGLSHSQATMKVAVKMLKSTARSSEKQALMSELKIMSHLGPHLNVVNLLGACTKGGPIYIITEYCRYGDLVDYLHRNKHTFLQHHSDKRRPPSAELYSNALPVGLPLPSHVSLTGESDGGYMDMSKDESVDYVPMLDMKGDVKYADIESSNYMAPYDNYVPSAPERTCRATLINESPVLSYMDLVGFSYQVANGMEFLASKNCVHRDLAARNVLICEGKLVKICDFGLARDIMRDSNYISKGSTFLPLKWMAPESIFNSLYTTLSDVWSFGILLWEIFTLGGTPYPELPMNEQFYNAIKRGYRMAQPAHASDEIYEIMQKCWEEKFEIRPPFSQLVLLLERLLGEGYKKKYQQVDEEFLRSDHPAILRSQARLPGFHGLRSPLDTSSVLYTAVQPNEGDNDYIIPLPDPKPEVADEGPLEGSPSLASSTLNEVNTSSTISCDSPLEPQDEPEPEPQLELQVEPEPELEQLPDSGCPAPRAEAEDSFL
T9 sequence (O60331 whole entry): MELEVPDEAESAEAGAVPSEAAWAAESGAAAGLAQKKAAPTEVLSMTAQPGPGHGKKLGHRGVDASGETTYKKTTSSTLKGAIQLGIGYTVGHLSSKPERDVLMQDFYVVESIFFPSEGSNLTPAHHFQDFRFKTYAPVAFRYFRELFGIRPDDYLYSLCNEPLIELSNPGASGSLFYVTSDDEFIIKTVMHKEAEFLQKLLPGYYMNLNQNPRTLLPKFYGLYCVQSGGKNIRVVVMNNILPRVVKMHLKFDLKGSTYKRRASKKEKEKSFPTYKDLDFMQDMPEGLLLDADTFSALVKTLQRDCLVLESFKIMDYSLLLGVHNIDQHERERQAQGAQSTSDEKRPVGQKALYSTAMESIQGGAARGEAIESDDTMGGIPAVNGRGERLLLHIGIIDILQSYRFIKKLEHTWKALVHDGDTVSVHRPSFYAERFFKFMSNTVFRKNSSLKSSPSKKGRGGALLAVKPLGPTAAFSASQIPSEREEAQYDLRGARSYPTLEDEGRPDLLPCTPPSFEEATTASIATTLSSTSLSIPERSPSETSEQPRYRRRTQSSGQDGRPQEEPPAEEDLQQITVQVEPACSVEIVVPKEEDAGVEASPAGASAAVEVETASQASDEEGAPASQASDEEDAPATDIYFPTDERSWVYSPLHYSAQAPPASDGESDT

Row | Compound | remaining binding at 1 µM (AURKB) | remaining binding at 1 µM (EIF2AK1) | remaining binding at 1 µM (FLT3(D835H)) | remaining binding at 1 µM (FLT3(R834Q)) | remaining binding at 1 µM (FLT3-autoinhibited) | remaining binding at 1 µM (KIT(V559D)) | remaining binding at 1 µM (PDGFRB) | remaining binding at 1 µM (PIK3C2B) | remaining binding at 1 µM (PIP5K1C) | remaining binding at 1 µM (TYK2(JH2domain-pseudok.)) | remaining binding at 0.1 µM (AURKB; 100 nM) | remaining binding at 0.1 µM (EIF2AK1; 100 nM) | remaining binding at 0.1 µM (FLT3(D835H); 100 nM) | remaining binding at 0.1 µM (FLT3(R834Q); 100 nM) | remaining binding at 0.1 µM (FLT3-autoinhibited; 100 nM) | remaining binding at 0.1 µM (KIT(V559D); 100 nM) | remaining binding at 0.1 µM (PDGFRB; 100 nM) | remaining binding at 0.1 µM (PIK3C2B; 100 nM) | remaining binding at 0.1 µM (PIP5K1C; 100 nM) | remaining binding at 0.1 µM (TYK2(JH2domain-pseudok.); 100 nM)
1 | Cc1cc(NC(=O)[C@H](O)c2cccc(F)c2)ccc1-c1cn(C)c2ncnc(N)c12 [Compound 11, (R)-N-(4-(4-amino-7-methyl-7H-pyrrolo[2,3-d]pyrimidin-5-yl)-3-methylphenyl)-2-(3-fluorophenyl)-2-hydroxy acetamide] | 24% | 49% | 33% | 59% | 57% | 27% | 40% | 27% | 99% | 80% | – | – | – | – | – | – | – | – | – | –
2 | Cc1nc(N)c2c(-c3ccc(NC(=O)[C@H](O)c4cccc(F)c4)cc3C)cn(C)c2n1 [Compound 24] | 90% | 73% | 98% | 98% | 100% | 72% | 100% | 100% | 34% | 79% | – | – | – | – | – | – | – | – | – | –
3 | Cc1nc(N)c2c(-c3ccc(NC(=O)[C@H](O)c4cccc(C(F)(F)F)c4)cc3C)cn(C)c2n1 [Compound 26] | 70% | 78% | 25% | 7.5% | 65% | 0.45% | 11% | 78% | 91% | 30% | 81% | 89% | 85% | 84% | 100% | 96% | 100% | 100% | 100% | 98%
